Key:
[1] = Inhibition of C-CBL (unknown origin); set-up: species or system Homo sapiens
[2] = biological target: E3 ubiquitin-protein ligase CBL-B (Homo sapiens, UniProt Q13191); experiment: Inhibition of CBL-B (unknown origin)
Homo sapiens = species on record: Homo sapiens; experiment: Selectivity ratio of IC50 for c-CBL (unknown origin) to IC50 for CBL-B (unknown origin)

Sequence of E3 ubiquitin-protein ligase CBL-B (Q13191 whole entry): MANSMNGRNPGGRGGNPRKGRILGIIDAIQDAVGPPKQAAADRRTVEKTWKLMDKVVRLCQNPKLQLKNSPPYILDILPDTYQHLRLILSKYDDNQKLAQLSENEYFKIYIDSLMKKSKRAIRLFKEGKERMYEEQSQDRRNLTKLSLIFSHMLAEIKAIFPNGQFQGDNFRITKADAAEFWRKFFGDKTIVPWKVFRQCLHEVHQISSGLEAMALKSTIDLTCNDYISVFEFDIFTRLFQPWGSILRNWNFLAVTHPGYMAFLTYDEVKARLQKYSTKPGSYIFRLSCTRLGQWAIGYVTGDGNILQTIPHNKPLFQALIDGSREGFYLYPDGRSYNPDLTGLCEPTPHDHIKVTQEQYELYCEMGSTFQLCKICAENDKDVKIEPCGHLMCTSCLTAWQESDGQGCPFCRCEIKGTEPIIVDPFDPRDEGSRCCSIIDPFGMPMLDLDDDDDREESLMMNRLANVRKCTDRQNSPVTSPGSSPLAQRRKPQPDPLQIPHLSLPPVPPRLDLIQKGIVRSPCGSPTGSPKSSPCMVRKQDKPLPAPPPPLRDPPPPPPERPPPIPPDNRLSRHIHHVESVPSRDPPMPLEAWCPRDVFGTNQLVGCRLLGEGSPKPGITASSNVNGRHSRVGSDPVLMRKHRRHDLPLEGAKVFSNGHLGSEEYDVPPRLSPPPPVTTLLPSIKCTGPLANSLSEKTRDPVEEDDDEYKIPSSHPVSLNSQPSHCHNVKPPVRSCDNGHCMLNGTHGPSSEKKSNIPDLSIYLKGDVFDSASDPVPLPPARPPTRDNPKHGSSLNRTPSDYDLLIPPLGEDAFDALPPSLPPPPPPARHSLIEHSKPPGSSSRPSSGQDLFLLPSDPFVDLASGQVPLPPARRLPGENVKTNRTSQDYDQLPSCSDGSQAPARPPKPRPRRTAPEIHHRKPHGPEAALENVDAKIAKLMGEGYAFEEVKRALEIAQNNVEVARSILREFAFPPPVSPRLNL

IC50 [1] [nM] | IC50 [2] [nM] | Ratio IC50 (Homo sapiens) | SMILES
~10000 | ~200 | 50 | C[C@H](c1cc(C(F)(F)F)c2nc(-c3cccc(CC4(c5nncn5C)COC4)c3)[nH]c2c1)N1CCC2(CC2)C1
~60 | ~6 | 10 | Cn1cnnc1CC1(c2cccc(N3CC4=C(C(F)(F)F)C=C(CN5CCC(C)(F)CC5)CN4C3=O)c2)COC1
~120 | ~21 | 6 | Cn1cnnc1C1(c2cccc(N3Cc4c(cc(CNC5(C)CCC5)cc4C(F)(F)F)C3=O)c2)CC2(CC(F)(F)C2)C1
~165 | ~16.5 | 10 | CC1CC(c2cccc(N3C(=O)c4cc(CNC5(C)CCC5)cc5c(F)ccc3c45)c2)(c2nncn2C)C1 (configuration not stated)
– | ~200 | – | CC1CC(c2cccc(-c3nc4cc(CN5CCC[C@H](C)C5)cc(C(F)(F)F)c4[nH]3)c2)(c2nncn2C)C1 (some centres not stated)
~10000 | – | 50 | CC1CC(c2cccc(-c3nc4c(C(F)(F)F)cc(CN5CCC[C@H](C)C5)cc4[nH]3)c2)(c2nncn2C)C1 (some centres not stated)
~1100 | ~170 | 6.5 | Cn1cnnc1[C@H](c1cccc(N2Cc3c(Cl)cc(CNC4(C)CCC4)cc3C2=O)c1)[C@H]1C[C@@H](F)C1
~20 | ~5 | 4 | CC1CC(c2cccc(N3Cc4c(cc(CN5CCC[C@H](C)C5)cc4C(F)(F)F)C3=O)c2)(c2nncn2C)C1 (some centres not stated)
~10000 | ~200 | 50 | COCCNCc1cc(C(F)(F)F)c2oc(-c3cccc(-c4ccc(F)cc4-c4nncn4C)c3)nc2c1
~150 | ~25 | 6 | CO[C@H]1C[C@@](c2cccc(N3Cc4c(cc(CNC5(C)CCC5)cc4C(F)F)C3=O)c2)(c2nncn2C)C1

— ChEMBL document CHEMBL5584278, “Deciphering the Selectivity of CBL-B Inhibitors Using All-Atom Molecular Dynamics and Machine Learning” (ACS Med Chem Lett, 2024)
